Assays:
Pseudomonadaceae = experiment: Fecal microbiota analysis, differential abundance of taxa (MaAsLin); assay type: in vivo, human; conditions: after GLU intake compared to baseline (GLU (Pre)), p=0.014
Description: (§1) To determine significant differences between bacterial alpha diversity metrics (the measure of microbiome diversity within a single sample), a paired t-test was used between alpha diversity values of different sample groups (p<0.05). Significant differences in beta diversity (the measure of similarity or dissimilarity of multiple samples) between groups was determined using the qiime diversity beta-group-significance command in QIIME2 as well, which performs pairwise Permutational Multivariate Analysis of Variance (PERMANOVA) tests on beta diversity distance matrices (p<0.05). Differential abundance of taxa between sample groups were evaluated using Multivariate Analysis by Linear Models (MaAsLin) in R version 4.0.2 using the Maaslin2 command in the Maaslin2 R library on rarified taxonomy data generated by QIIME2 (p<0.05). […]
(§2) A fecal microbiota analysis was further conducted. […] The Qubit Fluorometer (Thermo Fisher Scientific, San Francisco, Calif.) was used to quantify PCR product concentrations prior to combining the PCR products in equal quantities for purification with the Wizard SV Gel and PCR Cleanup kit (Promega, Madison, Wis.). […] Library purity and concentration was measured on a 2100 Bioanalyzer System (Agilent Technologies, Santa Clara, Calif.). […]
(§3) Ion Torrent BAM files of raw DNA sequencing data were converted to the FASTQ format using BEDTools and then analyzed using Quantitative Insights into Microbiology (QIIME2) version 2019.10. Reads shorter than 200 bp in length were removed. […] Multiple sequence Alignment using Fast Fourier Transform (MAFFT) was used for read alignment, while gapped and unconserved alignments were filtered using the alignment mask plugin. […] Sequences of mitochondria and chloroplast origin were filtered from downstream analysis, leaving a total of 1,391,259 total high-quality reads associated with taxonomic annotations. Samples were rarified to 7,874 reads for alpha and beta diversity analysis. […]

Bacillaceae = experiment: as above; assay type: in vivo, human; conditions: after GLU intake compared to baseline (GLU (Pre)), p=0.038
Description: as §1, §2, §3

Cl.N[C@H]1C(O)O[C@H](CO)[C@@H](O)[C@@H]1O (some centres unmarked) [GLU, glucosamine hydrochloride]
Proportion of Pseudomonadaceae, Log2 FC (Pseudomonadaceae): −1.05 | Proportion of Bacillaceae (Bacillaceae): not detected
